Measured values from publication PMC10820135, “Pharmacokinetic, Tissue Distribution, Metabolite, and Toxicity Evaluation of the Matrine Derivative, (6aS, 10S, 11aR, 11bR, 11cS)-10-Methylaminododecahydro-3a, 7a-Diaza-benzo (de) Anthracene-8-thione” (Molecules, 2024).
Entries after “also recorded” stand apart in the source; their conditions may differ. Read-outs that look alike come from different tables or passages of the source.

Legend:
[1] = Plasma pharmacokinetics of MASM in rats, non-compartmental analysis; assay type: in vivo, Sprague-Dawley rats; details: rat
Description: UHPLC analysis was performed using a Thermo Accela AS system, employing an ACQUITY UPLC®BEH C18 (Waters Corporation, Wexfords, Ireland) (1.7 µm, 2.1 × 100 mm) column and a binary solvent system consisting of water containing 0.1% formic acid as mobile phase A and acetonitrile as mobile phase B. For pharmacokinetic evaluation, the gradient elution was set as follows: 97% A from 0 to 2 min, 97–70% A from 2 to 3 min, 70–20% A from 3 to 3.5 min, 20% A from 3.5 to 3.6 min, 20–97% A from 3.6 to 3.7 min, and 97% A from 3.7 to 5 min. For the metabolic test, the gradient elution in full scan mode was set as follows: 97% A from 0 to 2 min, 97–70% A from 2 to 4 min, 70–20% A from 4 to 6 min, 20% A from 6 to 7 min, 20–97% A from 7 to 8 min, and 97% A from 8 to 10 min. The flow rate was 0.2 mL/min, with a temperature of 40 °C maintained and an injection volume of 5 μL. The QQQ-MS/MS analysis was conducted using a Thermo TSQ QUANTUM ACCESS MAX system equipped with an electrospray ionization (ESI) source. The spray voltages were set at 4.0 kV and 2.5 kV for positive and negative ion modes, respectively; capillary and vaporizer temperatures were 320 °C and 350 °C, respectively; sheath and aux gas pressures were 35 and 10 psi, respectively.
A precisely measured MASM sample weighing 400 mg was dissolved in normal saline to create aqueous solutions with concentrations of 8.0, 6.0, and 1.5 mg/mL for intraperitoneal, oral, and intravenous administrations at doses of 80 mg/kg, 60 mg/kg, and 15 mg/kg, respectively.
Seventy Sprague-Dawley rats were fasted overnight before dosing, with free access to water. Subsequently, the rats were randomly and equally divided into 7 groups: the control groups received 3 different routes of administration: intravenous, intraperitoneal, and intragastric (NS, saline 1 mL/100 g); MASM intraperitoneal group (A, i.p. 80 mg/kg), MASM intragastrical group (B, i.g. 60 mg/kg), MASM intravenous group (C, i.v. 15 mg/kg), and DMASM intragastrical group (D, i.g. 60 mg/kg). It is important to note that the recommended clinical dose of matrine injection is 0.15 g, which is equivalent to a dosage of 15 mg/kg in rats. MASM was administered via tail vein injection at a dosage of 1 mL/100 g for intravenous dosing, while for intraperitoneal dosing, MASM was injected at the lower-right side of the abdomen of rats. Blood samples (approximately 0.3 mL) were collected from the eye socket at specific time intervals (0.083, 0.167, 0.25, 0.5, 1, 1.5, 2, 4, 6, 9, 12, and 24 h) after administration for each group. These samples were then placed in centrifuge tubes containing heparin sodium, subjected to centrifugation at 4000 rpm for 15 min, and the resulting supernatant was collected and stored at −80 °C until further analysis. During the analysis of the plasma sample, protein precipitation was carried out using a plasma-to-acetonitrile ratio of 1:3, and 5μL of the resulting supernatant was injected. The developed UHPLC-QQQ-MS/MS analysis method underwent a series of validations, and the peak area of the plasma sample was obtained employing the Xcalibur 2.2 data-processing system. The concentrations of MASM in plasma were then determined using linear regression equations. Subsequently, the in vivo pharmacokinetic parameters were calculated using the non-compartment model in DAS 3.0 software. Blood concentration–time curves were generated using Prism 8.0 (GraphPad Software Inc., San Diego, CA, USA).

ICR mice = assay: Acute toxicity of MASM in mice via intravenous administration; assay type: in vivo
Description: (§1) All mice were administered MASM intravenously. The body weight of each mouse was measured on days 7 and 14. On the 14th day, all mice were euthanized, and the heart, liver, spleen, lung, and kidney were collected and weighed immediately. Serum was collected from the eyeballs for further biochemical analysis, and a small portion of each tissue and organ was fixed in 4% […] solution for histopathological examination. Bar graphs were generated applying Prism 8.0 (GraphPad Software Inc., San Diego, CA, USA), and HE staining samples were captured using the Leica image system.

[2] = as above; assay type: in vivo; details: ICR, mouse, in vivo, iv, mice, intravenous
Description: as §1

[3] = Sprague-Dawley, plasma, iv, i.v. 15 mg/kg, n = 6, mean ± SD
[4] = i.g. 60 mg/kg, n = 6, mean ± SD
[5] = i.p. 80 mg/kg, n = 6, mean ± SD

## CNC1CC(=S)N2CC3CCCN4CCCC(C34)C2C1 [MASM, (6aS, 10S, 11aR, 11bR, 11cS)-10-methylaminododecahydro-3a, 7a-diaza-benzo (de) anthracene-8-thione]
[1]; Sprague-Dawley, plasma, intraperitoneal, i.p. 80 mg/kg vs i.v. 15 mg/kg, n = 6, mean ± SD, read-out: F(%) bioavailability
  bioavailability: 54 ± 19.4%
[1]; Sprague-Dawley, plasma, ip, i.p. 80 mg/kg, n = 6, mean ± SD
  Cmax: 2210 ± 930 ng/mL
[1]; Sprague-Dawley, plasma, ip, i.p. 80 mg/kg, n = 6, mean ± SD, read-out: t 1/2 (elimination half-life) (converted)
  half-life: 9.97 ± 3.95 h
[1]; [3]
  Cmax: 780 ± 540 ng/mL
  clearance: 71.7 mL/min/kg
[1]; Sprague-Dawley, plasma, iv, i.v. 15 mg/kg, n = 6, mean ± SD, read-out: V d (apparent volume of distribution)
  Vd: 36.6 ± 17.8 L/kg
[1]; Sprague-Dawley, plasma, iv, i.v. 15 mg/kg, n = 6, mean ± SD, read-out: t 1/2 (elimination half-life) (converted)
  half-life: 10.5 ± 8.84 h
[1]; Sprague-Dawley, plasma, oral, i.g. 60 mg/kg vs i.v. 15 mg/kg, n = 6, mean ± SD, read-out: F(%) absolute intragastrical bioavailability
  bioavailability: 44.5 ± 12.3%
[1]; Sprague-Dawley, plasma, other: intravenous, intravenous, intraperitoneal or intragastric, read-out: t1/2 regardless of the route of administration (converted)
  half-life: ~10 h
[1]; Sprague-Dawley, plasma, po, i.g. 60 mg/kg, n = 6, mean ± SD
  Cmax: 1380 ± 570 ng/mL
[1]; Sprague-Dawley, plasma, po, i.g. 60 mg/kg, n = 6, mean ± SD, read-out: t 1/2 (elimination half-life) (converted)
  half-life: 10.2 ± 4.95 h
[1]; Sprague-Dawley, plasma, ip, 80 mg/kg, i.p. 80 mg/kg, n = 6, mean ± SD
  Tmax: 0.21 ± 0.04 h
[1]; Sprague-Dawley, plasma, ip, 80 mg/kg, i.p. 80 mg/kg, n = 6, mean ± SD, read-out: AUC(0–24)
  AUC(0-t): 15600 ± 5610 ng·h/mL
[1]; Sprague-Dawley, plasma, ip, 80 mg/kg, i.p. 80 mg/kg, n = 6, mean ± SD, read-out: AUC(0–t)
  AUC(0-t): 12400 ± 5320 ng·h/mL
[1]; Sprague-Dawley, plasma, iv, 15 mg/kg, i.v. 15 mg/kg, n = 6, mean ± SD
  Tmax: 0.17 ± 0.17 h
[1]; Sprague-Dawley, plasma, iv, 15 mg/kg, i.v. 15 mg/kg, n = 6, mean ± SD, read-out: AUC(0–24)
  AUC(0-t): 5410 ± 3220 ng·h/mL
[1]; Sprague-Dawley, plasma, iv, 15 mg/kg, i.v. 15 mg/kg, n = 6, mean ± SD, read-out: AUC(0–t)
  AUC(0-t): 4280 ± 2400 ng·h/mL
[1]; Sprague-Dawley, plasma, po, 60 mg/kg, i.g. 60 mg/kg, n = 6, mean ± SD
  Tmax: 1.3 h
[1]; Sprague-Dawley, plasma, po, 60 mg/kg, i.g. 60 mg/kg, n = 6, mean ± SD, read-out: AUC(0–24)
  AUC(0-t): 13700 ± 7550 ng·h/mL
[1]; Sprague-Dawley, plasma, po, 60 mg/kg, i.g. 60 mg/kg, n = 6, mean ± SD, read-out: AUC(0–t)
  AUC(0-t): 10900 ± 4780 ng·h/mL
[1]; [4]
  CL: 93.3 ± 49 mL/min/kg
  V d (apparent volume of distribution): 69.43 ± 22.58 L/kg
[1]; [5]
  CL: 95.5 ± 33.8 mL/min/kg
  V d (apparent volume of distribution): 84.74 ± 57.17 L/kg
ICR mice; day 14, vs control group, all dosages
  viscera indices (visceral weight to body weight) of heart, liver, spleen, lung, kidney: no significant alterations; also recorded: remained unchanged
ICR mice; high (240 mg/kg) and medium-high (144 mg/kg) dose groups
  heart histopathology (HE staining): noticeable increase in myocardial fiber density
ICR mice; high and medium-high dose groups vs control
  spleen histopathology (HE staining): slight increase in the count of splenic sinusoids and lymph nodes
ICR mice; high and medium-high dose groups, accompanied by portal area bleeding
  liver histopathology (HE staining): noteworthy escalation in the number of hepatocytes
ICR mice; high-dose group (240 mg/kg)
  kidney histopathology (HE staining): proliferation and dense arrangement, accompanied by evident bleeding
  lung histopathology (HE staining), alveolar cavity: widened, accompanied by hemorrhaging
ICR mice; medium-dose to low-dose groups
  lung histopathology (HE staining), alveolar wall: slight thinning
ICR mice; medium-high and medium-dose groups
  kidney histopathology, renal interstitial blood vessels: proliferation and dilation
ICR mice; mice, day 14, p > 0.05
  ALP activity in plasma vs control: no statistically significant differences
  ALT activity in plasma vs control: no statistically significant differences
  AST activity in plasma vs control: no statistically significant differences
  albumin (ALB) level in plasma vs control: no statistically significant differences
  creatinine (CREA) level in plasma vs control: statistically indistinguishable from those of the control group; also recorded: no statistically significant differences
  total protein (TP) level in plasma vs control: no statistically significant differences
  urea (UREA) level in plasma vs control: statistically indistinguishable from those of the control group; also recorded: no statistically significant differences
ICR mice; mice, intravenous
  symptoms upon death: convulsions, increased salivary secretion, urination, and defecation
ICR mice; particularly low (31.1 mg/kg), medium-low (51.84 mg/kg), medium (86.4 mg/kg) dose groups
  overall histopathological changes of primary organs: no significant alterations; also recorded: no substantial pathological alterations; also recorded: did not reveal any significant pathological changes
[2]; 14-day observation, read-out: LD50
  LD50 at 14 day: 94.2 mg/kg
[2]; read-out: LD50, 95% confidence interval
  LD50 at 14 day: 70.8 to 129 mg/kg
